Test results as given in EP0137212A2, “Ointment bases and ointments” (OTSUKA PHARMACEUTICAL CO., LTD., priority 1983, dated 1985).
Converted amounts (≈) assume the structure as drawn. Like-named read-outs stand apart in the source and are kept apart here.

Legend:
[1] = Steroid Solubility Test; format: physicochemical
Experimental: This test was conducted to determine the maximum weight of Steroids A and B that could completely dissolve in 1 ml of various solvents at a temperature of 20°C.

[2] = test system: carrageenin-induced paw edema; test: Inhibition of carrageenin-induced paw edema in rats; format: in vivo; settings: 200 mg ointment (Ointment A / Ointment B) rubbed into right hind paw 1 and 2 hours before carrageenin
Experimental: After the ointment was applied to a rat's hind paw, carrageenin serving as a phlogogen was injected into the same hind paw, and the swelling caused by the phlogogen was measured. More specifically stated, the test was carried out as given below, using groups of 5 rats (weighing 175 g). First, the right hind paw of the rat was immersed in water, and the displacement was measured thereby giving the volume of hind paw. One and 2 hours before the injection of the phlogogen (carrageenin), 200 mg of the ointment was elaborately rubbed into the right hind paw of the rat, which was then wrapped in Saran Wrap (trademark) and covered with an elastic strip of adhesive plaster. Thereafter, 0.1 ml of a 1% solution of carrageenin was injected into the right hind paw, and the volume of the hind paw was hourly measured to determine the swelling (%) according to the following equation based on the volume thereof before the injection with the results shown in Fig. 1. [formula] wherein V0 is the volume of the right hind paw before the injection of carrageenin and V1 is the volume thereof after the injection of carrageenin.

Structure (SMILES)	solubility ([1]; 1,3-butanediol, organic solvent or mixture)	solubility ([1]; 1,3-dimethyl-2-imidazolidinone, organic solvent or mixture)	solubility ([1]; benzyl alcohol, organic solvent or mixture)	solubility ([1]; diethyl sebacate, organic solvent or mixture)	solubility ([1]; polyethylene glycol 400, organic solvent or mixture)	solubility ([1]; propylene glycol, organic solvent or mixture)	anti-inflammatory activity (swelling of hind paw, Fig. 1, in words) [2]	solubility ([1]; organic solvent or mixture, solvent 1,3-Butanediol, 20°C, read-out: maximum weight that could completely dissolve in 1 ml of solvent)	solubility ([1]; organic solvent or mixture, solvent 1,3-Dimethyl-2-imidazolidinone, 20°C, read-out: maximum weight that could completely dissolve in 1 ml of solvent)	solubility ([1]; organic solvent or mixture, solvent Benzyl alcohol, 20°C, read-out: maximum weight that could completely dissolve in 1 ml of solvent)	solubility ([1]; organic solvent or mixture, solvent Diethyl sebacate, 20°C, read-out: maximum weight that could completely dissolve in 1 ml of solvent)	solubility ([1]; organic solvent or mixture, solvent Polyethylene glycol 400, 20°C, read-out: maximum weight that could completely dissolve in 1 ml of solvent)	solubility ([1]; organic solvent or mixture, solvent Propylene glycol, 20°C, read-out: maximum weight that could completely dissolve in 1 ml of solvent)
CCOC(=O)O[C@]1(C(=O)OCCl)[C@H](C)C[C@H]2[C@@H]3CCC4=CC(=O)C=C[C@]4(C)[C@@]3(F)[C@@H](O)C[C@@]21C [Steroid B, chloromethyl 17a-ethoxycarbonyloxy-9a-fluoro-11β-hydroxy-16α-methylandrosta-1,4-diene-3-one-17β-carboxylate]	50 µg/mL (≈ 0.1 mM)	52100 µg/mL (≈ 104 mM)	920 µg/mL (≈ 1.84 mM)	280 µg/mL (≈ 0.561 mM)	450 µg/mL (≈ 0.902 mM)	100 µg/mL (≈ 0.2 mM)	exhibit an anti-inflammatory activity	–	–	–	–	–	–
CCOC(=O)O[C@]1(C(=O)OCCl)CC[C@H]2[C@@H]3CCC4=CC(=O)C=C[C@]4(C)[C@H]3[C@@H](O)C[C@@]21C [Steroid A, chloromethyl 17α-ethoxycarbonyloxy-11β-hydroxyandrosta-1,4-diene-3-one-17β-carboxylate]	–	–	–	–	–	–	exhibit an anti-inflammatory activity	1950 µg/mL (≈ 4.18 mM)	357000 µg/mL (≈ 765 mM)	> 25000 µg/mL	6850 µg/mL (≈ 14.7 mM)	13300 µg/mL (≈ 28.5 mM)	2700 µg/mL (≈ 5.78 mM)
